Laboratory results from patent US7138361B2, “Herbicidal heterocycles” (E. I. du Pont de Nemours and Company, priority 2000, dated 2006).

Key:
Assay type in all cases: in vivo
[1] = system: Sunflower; test: Test C preemergence; settings: Rate 500 g/ha, visual evaluation after 12 to 14 days
[2] = system: Sunflower; test: Test C preemergence; settings: Rate 125 g/ha; scale 0 to 100, 0 no effect, 100 complete control
[3] = system: common ragweed (Ambrosia elatior); test: Test C preemergence; settings: for Plant response rating (0 to 100), Ragweed, Common: Rate 500 g/ha, visual evaluation after 12 to 14 days
Procedure, shortened: (§1)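 Preemergence: seeds sown then treated. Postemergence: plants 2–18 cm, 1- to 4-leaf. Both with surfactant-containing solvent formulation; visual injury scored 0–100 after 12–14 d.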

[4] = system: bermudagrass (Cynodon dactylon); test: Test C preemergence; settings: for Plant response rating (0 to 100 where 0 is no effect and 100 is complete control), Bermudagrass: Rate 500 g/ha, visual evaluation after 12 to 14 days
Procedure, shortened: as §1

[5] = system: velvetleaf (Abutilon theophrasti); test: Test C preemergence; settings: for Plant response rating (0 to 100), Velvetleaf: Rate 500 g/ha, visual evaluation after 12 to 14 days
Procedure, shortened: as §1

[6] = system: goosegrass (Eleusine indica); test: Test C preemergence; settings: for Plant response rating (0 to 100), Goosegrass: Rate 500 g/ha, visual evaluation after 12 to 14 days
Procedure, shortened: as §1

[7] = system: giant foxtail (Setaria faberii); test: Test C preemergence; settings: for Plant response rating (0 to 100), Foxtail, Giant: Rate 500 g/ha, visual evaluation after 12 to 14 days
Procedure, shortened: as §1

[8] = system: crabgrass (Digitaria sanguinalis); test: Test C preemergence; settings: for Plant response rating (0 to 100), Crabgrass: Rate 500 g/ha, visual evaluation after 12 to 14 days
Procedure, shortened: as §1

[9] = system: Surinam grass (Brachiaria decumbens); test: Test C preemergence; settings: for Plant response rating (0 to 100), Surinam grass: Rate 500 g/ha, visual evaluation after 12 to 14 days
Procedure, shortened: as §1

[10] = system: morningglory (Ipomoea hederacea); test: Test C preemergence; settings: for Plant response rating (0 to 100), Morningglory: Rate 500 g/ha, visual evaluation after 12 to 14 days
Procedure, shortened: as §1

[11] = system: cocklebur (Xanthium strumarium); test: Test C preemergence; settings: for Plant response rating (0 to 100), Cocklebur: Rate 500 g/ha, visual evaluation after 12 to 14 days
Procedure, shortened: as §1

[12] = system: rice (Oryza saliva); test: Test B preemergence
Procedure, shortened: (§2)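 Post-treatment, species sat 13–15 days under greenhouse conditions before visual scoring against controls, 0 (no effect) through 100 (complete control). Application preemergence to sown seeds or postemergence at 1- to 4-leaf stage, using a non-phytotoxic solvent/surfactant formulation.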

[13] = system: velvetleaf (Abutilon theophrasti); test: Test B preemergence
Procedure, shortened: as §2

[14] = system: barnyardgrass (Echinochloa crus-galli); test: Test B preemergence
Procedure, shortened: as §2

[15] = system: giant foxtail (Setaria faberii); test: Test B preemergence
Procedure, shortened: as §2

[16] = system: crabgrass (Digitaria sanguinalis); test: Test B preemergence
Procedure, shortened: as §2

[17] = system: Surinam grass (Brachiaria decumbens); test: Test B preemergence
Procedure, shortened: as §2

[18] = system: lambsquarters (Chenopodium album); test: Test B preemergence
Procedure, shortened: as §2

[19] = system: corn (Zea mays); test: Test B preemergence
Procedure, shortened: as §2

[20] = system: cocklebur (Xanthium strumarium); test: Test B preemergence
Procedure, shortened: as §2

[21] = system: morning glory (Ipomoea hederacea); test: Test B preemergence
Procedure, shortened: as §2

[22] = system: pigweed (Amaranthus retroflexus); test: Test B preemergence
Procedure, shortened: as §2

[23] = Rate 125 g/ha, scale 0 to 100, 0 no effect, 100 complete control
[24] = preemergence, Rate 62 g/ha, scale 0 to 100
[25] = preemergence, Rate 250 g/ha, scale 0 to 100, 0 no effect, 100 complete control
[26] = Preemergence, Rate 500 g/ha, scale 0 to 100, 0 no effect, 100 complete control
[27] = preemergence, Rate 125 g/ha, scale of 0 to 100 where 0 is no effect and 100 is complete control, 13 to 15 days

For CCOc1cccc(N2CCC(n3ccc(C(C)C)n3)C2=O)c1 (stereo not drawn) [Compound 128], the “Plant response rating (0 to 100), Sunflower” value [1] was 100, the “Plant response rating, Sunflower” value [2] was 100 and the “Plant response rating, Ragweed, Common” value [3, 23] was 100. For the same molecule, the “Plant response rating, Ragweed, Common” value [3, 24] was 100, the “Plant response rating (0 to 100), Ragweed, Common” value ([3]; preemergence) was 100 and the “Plant response rating, Ragweed, Common” value [3, 25] was 100. The “Plant response rating, Bermudagrass” value [4, 23] was 100, the “Plant response rating, Bermudagrass” value [4, 24] was 100 and the “Plant response rating (0 to 100 where 0 is no effect and 100 is complete control), Bermudagrass” value ([4]; preemergence) was 100. The “Plant response rating, Bermudagrass” value [4, 25] was 100, the “Plant response rating, Velvetleaf” value [5, 23] was 20 and the “Plant response rating, Velvetleaf” value [5, 24] was 10. For the same molecule, the “Plant response rating (0 to 100), Velvetleaf” value ([5]; preemergence) was 50, the “Plant response rating, Velvetleaf” value [5, 25] was 30 and the “Plant response rating, Goosegrass” value [6, 23] was 100. For the same molecule, the “Plant response rating, Goosegrass” value [6, 24] was 100, the “Plant response rating (0 to 100), Goosegrass” value ([6]; preemergence) was 100 and the “Plant response rating, Goosegrass” value [6, 25] was 100. For the same molecule, the “Plant response rating, Foxtail, Giant” value [7, 23] was 90, the “Plant response rating, Foxtail, Giant” value [7, 24] was 20 and the “Plant response rating (0 to 100), Foxtail, Giant” value ([7]; preemergence) was 100. The “Plant response rating, Foxtail, Giant” value [7, 25] was 90, the “Plant response rating, Crabgrass” value [8, 23] was 100 and the “Plant response rating, Crabgrass” value [8, 24] was 100. For the same molecule, the “Plant response rating (0 to 100), Crabgrass” value ([8]; preemergence) was 100, the “Plant response rating, Crabgrass” value [8, 25] was 100 and the “Plant response rating, Surinam grass” value [9, 23] was 100. For the same molecule, the “Plant response rating, Surinam grass” value [9, 24] was 90, the “Plant response rating (0 to 100), Surinam grass” value ([9]; preemergence) was 100 and the “Plant response rating, Surinam grass” value [9, 25] was 100. For the same molecule, the “Plant response rating, Morningglory” value [10, 23] was 60, the “Plant response rating, Morningglory” value [10, 24] was 30 and the “Plant response rating (0 to 100), Morningglory” value ([10]; preemergence) was 80. For the same molecule, the “Plant response rating, Morningglory” value [10, 25] was 70, the “Plant response rating, Cocklebur” value [11, 23] was 10 and the “Plant response rating, Cocklebur” value [11, 24] was 0. The “Plant response rating (0 to 100), Cocklebur” value ([11]; preemergence) was 70, the “Plant response rating, Cocklebur” value [11, 25] was 40 and the “Plant response rating, Rice” value [12, 26] was 100. The “Plant response rating, Rice” value [12, 27] was 100, the “Plant response rating, Velvetleaf” value [13, 26] was 50 and the “Plant response rating, Velvetleaf” value [13, 27] was 0. For the same molecule, the “Plant response rating, Barnyardgrass” value [14, 26] was 100, the “Plant response rating, Barnyardgrass” value [14, 27] was 100 and the “Plant response rating, Foxtail, Giant” value [15, 26] was 100. The “Plant response rating, Foxtail, Giant” value [15, 27] was 100, the “Plant response rating, Crabgrass” value [16, 26] was 100 and the “Plant response rating, Crabgrass” value [16, 27] was 100. The “Plant response rating, Surinam grass” value [17, 26] was 100, the “Plant response rating, Surinam grass” value [17, 27] was 100 and the “Plant response rating, Lambsquarters” value [18, 26] was 100. For the same molecule, the “Plant response rating, Lambsquarters” value [18, 27] was 100, the “Plant response rating, Corn” value [19, 26] was 60 and the “Plant response rating, Corn” value [19, 27] was 30. The “Plant response rating, Cocklebur” value [20, 26] was 60, the “Plant response rating, Cocklebur” value [20, 27] was 0 and the “Plant response rating, Morningglory” value [21, 26] was 90. For the same molecule, the “Plant response rating, Morningglory” value [21, 27] was 70, the “Plant response rating, Pigweed” value [22, 26] was 100 and the “Plant response rating, Pigweed” value [22, 27] was 100.
CCCC(C)c1ccn(C2SCN(c3cccc(C(F)(F)F)c3)C2=O)n1 (stereo not drawn) [Compound 92] was tested, and the “Plant response rating (0 to 100), Sunflower” value [1] was 55, the “Plant response rating, Sunflower” value [2] was 0 and the “Plant response rating, Ragweed, Common” value [3, 23] was 0. The “Plant response rating, Ragweed, Common” value [3, 24] was 0, the “Plant response rating (0 to 100), Ragweed, Common” value ([3]; preemergence) was 40 and the “Plant response rating, Ragweed, Common” value [3, 25] was 0. For the same molecule, the “Plant response rating, Bermudagrass” value [4, 23] was 20, the “Plant response rating, Bermudagrass” value [4, 24] was 20 and the “Plant response rating (0 to 100 where 0 is no effect and 100 is complete control), Bermudagrass” value ([4]; preemergence) was 90. For the same molecule, the “Plant response rating, Bermudagrass” value [4, 25] was 85, the “Plant response rating, Velvetleaf” value [5, 23] was 0 and the “Plant response rating, Velvetleaf” value [5, 24] was 0. The “Plant response rating (0 to 100), Velvetleaf” value ([5]; preemergence) was 0, the “Plant response rating, Velvetleaf” value [5, 25] was 0 and the “Plant response rating, Goosegrass” value [6, 23] was 75. For the same molecule, the “Plant response rating, Goosegrass” value [6, 24] was 60, the “Plant response rating (0 to 100), Goosegrass” value ([6]; preemergence) was 100 and the “Plant response rating, Goosegrass” value [6, 25] was 100. For the same molecule, the “Plant response rating, Foxtail, Giant” value [7, 23] was 0, the “Plant response rating, Foxtail, Giant” value [7, 24] was 20 and the “Plant response rating (0 to 100), Foxtail, Giant” value ([7]; preemergence) was 100. The “Plant response rating, Foxtail, Giant” value [7, 25] was 100, the “Plant response rating, Crabgrass” value [8, 23] was 80 and the “Plant response rating, Crabgrass” value [8, 24] was 60. For the same molecule, the “Plant response rating (0 to 100), Crabgrass” value ([8]; preemergence) was 100, the “Plant response rating, Crabgrass” value [8, 25] was 100 and the “Plant response rating, Surinam grass” value [9, 23] was 0. For the same molecule, the “Plant response rating, Surinam grass” value [9, 24] was 0, the “Plant response rating (0 to 100), Surinam grass” value ([9]; preemergence) was 35 and the “Plant response rating, Surinam grass” value [9, 25] was 20. For the same molecule, the “Plant response rating, Morningglory” value [10, 23] was 0, the “Plant response rating, Morningglory” value [10, 24] was 0 and the “Plant response rating (0 to 100), Morningglory” value ([10]; preemergence) was 0. For the same molecule, the “Plant response rating, Morningglory” value [10, 25] was 0, the “Plant response rating, Cocklebur” value [11, 23] was 0 and the “Plant response rating, Cocklebur” value [11, 24] was 0. The “Plant response rating (0 to 100), Cocklebur” value ([11]; preemergence) was 20, the “Plant response rating, Cocklebur” value [11, 25] was 20 and the “Plant response rating, Rice” value [12, 26] was 0. For the same molecule, the “Plant response rating, Rice” value [12, 27] was 0, the “Plant response rating, Velvetleaf” value [13, 26] was 0 and the “Plant response rating, Velvetleaf” value [13, 27] was 0. For the same molecule, the “Plant response rating, Barnyardgrass” value [14, 26] was 100, the “Plant response rating, Barnyardgrass” value [14, 27] was 30 and the “Plant response rating, Foxtail, Giant” value [15, 26] was 100. The “Plant response rating, Foxtail, Giant” value [15, 27] was 50, the “Plant response rating, Crabgrass” value [16, 26] was 100 and the “Plant response rating, Crabgrass” value [16, 27] was 50. For the same molecule, the “Plant response rating, Surinam grass” value [17, 26] was 70, the “Plant response rating, Surinam grass” value [17, 27] was 0 and the “Plant response rating, Lambsquarters” value [18, 26] was 100. For the same molecule, the “Plant response rating, Lambsquarters” value [18, 27] was 100, the “Plant response rating, Corn” value [19, 26] was 0 and the “Plant response rating, Corn” value [19, 27] was 0. The “Plant response rating, Cocklebur” value [20, 26] was 0, the “Plant response rating, Cocklebur” value [20, 27] was 0 and the “Plant response rating, Morningglory” value [21, 26] was 0. For the same molecule, the “Plant response rating, Morningglory” value [21, 27] was 0, the “Plant response rating, Pigweed” value [22, 26] was 100 and the “Plant response rating, Pigweed” value [22, 27] was 80.
